Columns and labels:
Assay type in all cases: physicochemical
[1] = Solid state stability of the trihydrochloride salt forms; details: humidity lowered down to 10% r.h.
Source text: Under standard conditions the crystalline trihydrochloride salt form of N-[trans-4-[4-(cyclopropylmethyl)-1-piperazinyl]cyclohexyl]-4-[[(7R)-7-ethyl-5,6,7,8-tetrahydro-5-methyl-8-(1-methylethyl)-6-oxo-2-pteridinyl]amino]-3-methoxy-benzamide is present in the form of an hydrate and is obtainable after drying with a changing stoichiometry (1-3 water equivalents). The hydrate with a stoichiometry close to a trihydrate seems to be the stable hydrated form under ambient conditions and can be obtained after conditioning of the dried material. The crystal water is tightly bound.
The respective anhydrous form, obtained by heating a sample up to 140° C., is not stable.

[2] = Intrinsic dissolution rate in aqueous media (rotating disc method); details: 37° C., 200 rpm
Protocol: The intrinsic dissolution rate of this crystalline form of the compound […] which maintains a constant surface area. 5 mg drug substance is compressed to form a disc at 356.1 N for 60 s. These discs are mounted to specially designed sample holders which fit into a Sotax dissolution tester. The dissolution media (37° C.) are stirred at 200 rpm. Samples are automatically withdrawn every second minute from the dissolution vessel and assayed via UV spectrophotometry. The intrinsic dissolution rate expressed in μg/cm^2/min is calculated using the slope of the concentration versus time plot and from the linear portion of the slope of the dissolution curve, volume of dissolution medium (35 ml) and area (diameter: 2 mm) of the exposed disk.

[3] = Hygroscopical behaviour, water sorption isotherms (DVS-1); details: 25° C.
Protocol: To study the hygroscopical behaviour of this material, sorption isotherms are registered on a DVS-1 water sorption monitor from Surface Measurement Systems. Adsorption and desorption isotherms are performed at 25° C. with 10% r.h. step intervals ranging from 10% r.h. up to 90% r.h.

[4] = Solubility in aqueous media
Source text: Solubility in Aqueous Media

SMILES: CC[C@@H]1C(=O)N(C)c2cnc(Nc3ccc(C(=O)N[C@H]4CC[C@H](N5CCN(CC6CC6)CC5)CC4)cc3OC)nc2N1C(C)C.Cl.Cl.Cl.O.O.O [formula (I) trihydrochloride, N-[trans-4-[4-(cyclopropylmethyl)-1-piperazinyl]cyclohexyl]-4-[[(7R)-7-ethyl-5,6,7,8-tetrahydro-5-methyl-8-(1-methylethyl)-6-oxo-2-pteridinyl]amino]-3-methoxy-benzamide trihydrochloride trihydrate]
- weight loss on lowering the humidity [1]: does not result in a significant weight loss

SMILES: CC[C@@H]1C(=O)N(C)c2cnc(Nc3ccc(C(=O)N[C@H]4CC[C@H](N5CCN(CC6CC6)CC5)CC4)cc3OC)nc2N1C(C)C [formula (I), N-[trans-4-[4-(cyclopropylmethyl)-1-piperazinyl]cyclohexyl]-4-[[(7R)-7-ethyl-5,6,7,8-tetrahydro-5-methyl-8-(1-methylethyl)-6-oxo-2-pteridinyl]amino]-3-methoxy-benzamide]
- dissolution rate ([2]; pH of aqueous medium 1.1): 6600 μg/cm^2/min
- dissolution rate ([2]; pH of aqueous medium 3.1): 2760 μg/cm^2/min
- dissolution rate ([2]; pH of aqueous medium 4.1): 1810 μg/cm^2/min
- dissolution rate ([2]; pH of aqueous medium 5.0): 1390 μg/cm^2/min
- dissolution rate ([2]; pH of aqueous medium 6.1): 1180 μg/cm^2/min
- dissolution rate ([2]; pH of aqueous medium 7.5): <50 μg/cm^2/min
- hygroscopicity (in words) ([3]; 10% r.h. up to 90% r.h.): not hygroscopic
- reversibility of the water-uptake ([3]; adsorption and desorption isotherms): completely reversible
- uptake of water ([3]; over the range 10-90% r.h.): approx. 0.7%
- solubility ([4]; Sörensen buffer, aqueous buffer, thermodynamic from solid, Sörensen pH 9.0, pH of the saturated solution 9.2): 0.003 mg/mL
- solubility ([4]; Sörensen buffer, aqueous buffer, thermodynamic from solid, Sörensen pH 10, pH of the saturated solution 9.9): 0.007 mg/mL
- solubility ([4]; Sörensen buffer, aqueous buffer, thermodynamic from solid, Sörensen pH 11, pH of the saturated solution 10.5): 0.009 mg/mL
- solubility ([4]; aqueous buffer, thermodynamic from solid, McIlvaine buffer pH 2.2, pH of the saturated solution 2.8): > 10 mg/mL
- solubility ([4]; aqueous buffer, thermodynamic from solid, McIlvaine buffer pH 3.0, pH of the saturated solution 3.6): > 10 mg/mL
- solubility ([4]; aqueous buffer, thermodynamic from solid, McIlvaine buffer pH 4.0, pH of the saturated solution 4.6): > 10 mg/mL
- solubility ([4]; aqueous buffer, thermodynamic from solid, McIlvaine buffer pH 5.0, pH of the saturated solution 5.5): > 10 mg/mL
- solubility ([4]; aqueous buffer, thermodynamic from solid, McIlvaine buffer pH 6.0, pH of the saturated solution 6.3): > 10 mg/mL
- solubility ([4]; aqueous buffer, thermodynamic from solid, McIlvaine buffer pH 7.0, pH of the saturated solution 7.2): > 10 mg/mL
- solubility ([4]; aqueous buffer, thermodynamic from solid, McIlvaine buffer pH 7.4, pH of the saturated solution 7.4): 2.5 mg/mL
- solubility profile in aqueous media (conclusion in words) ([4]; aqueous media of Table 1): good solubility profile
- solubility ([4]; pH 1.1, simulated gastric fluid, thermodynamic from solid, medium 0.1 N HCl, pH of the saturated solution 1.1): > 10 mg/mL
- solubility ([4]; pH 6.8, simulated gastric fluid, thermodynamic from solid, medium 0.01 N HCl, pH of the saturated solution 6.8): 7.6 mg/mL
- solubility ([4]; pH 9.6, thermodynamic from solid, medium water, pH of the saturated solution 9.6): 0.11 mg/mL
- solubility ([4]; pH 11.7, aqueous buffer, thermodynamic from solid, 0.01 N NaOH, pH of the saturated solution 11.7): 0.008 mg/mL
- solubility ([4]; pH 12.8, aqueous buffer, thermodynamic from solid, 0.01 N NaOH (second line), pH of the saturated solution 12.8): 0.003 mg/mL
- solubility ([4]; phosphate buffer, aqueous buffer, thermodynamic from solid, Phosphate pH 6.0, pH of the saturated solution 6.5): > 10 mg/mL
- solubility ([4]; phosphate buffer, aqueous buffer, thermodynamic from solid, Phosphate pH 7.0, pH of the saturated solution 7.3): 10 mg/mL
- solubility ([4]; phosphate buffer, aqueous buffer, thermodynamic from solid, Phosphate pH 8.0, pH of the saturated solution 8.1): 0.036 mg/mL

From patent publication US8329695B2, “Crystalline form of the free base N-[trans-4-[4-(cyclopropylmethyl)-1-piperazinyl]cyclohexyl]-4-[[(7r)-7-ethyl-5,6,7,8-tetrahydro-5-methyl-8-(1-methylethyl)-6-oxo-2-pteridinyl]amino]-3-methoxy-benzamide” (Boehringer Ingelheim International GmbH, priority 2007, dated 2012)
